Key:
h-GABA-A α5β3γ2 [1] = molecular target: T1, h-GABA-A α5β3γ2 (Homo sapiens, UniProt P18507+P31644); test: [3H]flumazenil competition binding assay, membranes of HEK293 cells expressing GABAA receptors
Procedure, shortened: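 Receptor source: human α5β3γ2 transiently transfected into HEK293 cells, membranes in pH 7.5 Krebs-tris. Filtration through GF/C, then scintillation counting.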

h-GABA-A α5β3γ2 [2] = molecular target: T1, h-GABA-A α5β3γ2; test: Two-electrode voltage clamp electrophysiology in Xenopus laevis oocytes expressing GABAA receptors, modulation of GABA EC20 current; assay type: cell-based; set-up: host or cells: Xenopus laevis oocytes micro-injected with RNA transcripts of the subunits
Procedure, shortened: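 Modulation is reported as % of the GABA EC20 current, calculated as 100*(Fold increase−1) from the peak ratio between a second GABA response carrying compound (applied at roughly 30-fold Ki) and a preceding control response. Oocytes expressing human α5β3γ2 were clamped at −80 mV at room temperature, 3–5 days after injection.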

[3] = displacement of [3H]-Flumazenil 0.5 nM, HEK293 cells expressing human receptors, mean of two determinations, Table 1
[4] = % modulation of GABA EC20 = 100*(Fold increase-1), Table 1
[5] = test compound at approx. 30 fold its Ki, GABA at EC20, Table 1

Ki (h-GABA-A α5β3γ2 [1]; [3]) | Efficacy (GABA) % (h-GABA-A α5β3γ2 [2]; [4]) | Fold increase h-GABA-A α5β3γ2 oocyte (h-GABA-A α5β3γ2 [2]; [5]) | Structure (SMILES) | Ki (h-GABA-A α5β3γ2 [1]; reference compounds, Table 2) | Efficacy (GABA) % (h-GABA-A α5β3γ2 [2]; reference compounds, % modulation of GABA EC20, Table 2) | Fold increase h-GABA-A α5β3γ2 oocyte (h-GABA-A α5β3γ2 [2]; reference compounds, Table 2)
3.3 nM | 68% | 1.68 | Cc1onc(-c2ccc(Cl)cn2)c1Cn1ncc(N2CC(OCC3CC3)C2)cc1=O [Example 143, 2-((3-(5-Chloropyridin-2-yl)-5-methylisoxazol-4-yl)methyl)-5-(3-(cyclopropylmethoxy)azetidin-1-yl)pyridazin-3(2H)-one] | – | – | –
16 nM | 107% | 2.07 | Cc1cc(-c2noc(C)c2Cn2ncc(N3CC(OCC4CC4)C3)cc2=O)no1 [Example 141, 5-[3-(cyclopropylmethoxy)azetidin-1-yl]-2-[[5-methyl-3-(5-methylisoxazol-3-yl)isoxazol-4-yl]methyl]pyridazin-3-one] | – | – | –
3.4 nM | 131% | 2.31 | Cc1onc(-c2ccc(Cl)nc2)c1Cn1ncc(N2CCN(c3cncnc3)CC2)cc1=O [Example 277, 2-((3-(6-chloropyridin-3-yl)-5-methylisoxazol-4-yl)methyl)-5-(4-(pyrimidin-5-yl)piperazin-1-yl)pyridazin-3(2H)-one] | – | – | –
2.8 nM | 94% | 1.94 | Cc1ccc(-c2noc(C)c2Cn2ncc(N3CCC4(CCOCC4)CC3)cc2=O)nn1 [Example 247, 2-[[5-methyl-3-(6-methylpyridazin-3-yl)isoxazol-4-yl]methyl]-5-(3-oxa-9-azaspiro[5.5]undecan-9-yl)pyridazin-3-one] | – | – | –
13 nM | 132% | 2.32 | Cc1ccc(-c2noc(C)c2Cn2ncc(NC3CN(C4CC4)C3)cc2=O)cn1 [Example 96, 5-((1-cyclopropylazetidin-3-yl)amino)-2-((5-methyl-3-(6-methylpyridin-3-yl)isoxazol-4-yl)methyl)pyridazin-3(2H)-one] | – | – | –
14.2 nM | 100% | 2 | Cc1ccc(-c2noc(C)c2Cn2ncc(N3CCC(C(=O)NC4CC4)CC3)cc2=O)cn1 [Example 27, N-cyclopropyl-1-[1-[[5-methyl-3-(6-methyl-3-pyridyl)isoxazol-4-yl]methyl]-6-oxo-pyridazin-4-yl]piperidine-4-carboxamide] | – | – | –
71.1 nM | 73% | 1.73 | Cc1onc(-c2ccc(Cl)nc2)c1Cn1ncc(N2CC3(C[C@H](C)CCO3)C2)cc1=O [Example 322, (R)-2-((3-(6-chloropyridin-3-yl)-5-methylisoxazol-4-yl)methyl)-5-(8-methyl-5-oxa-2-azaspiro[3.5]nonan-2-yl)pyridazin-3(2H)-one] | – | – | –
18.4 nM | 121% | 2.21 | Cc1ccc(-c2noc(C)c2Cn2ncc(-c3ccnc(OC4CCOC4)c3)cc2=O)cn1 (stereo not drawn) [Example 177, 2-((5-methyl-3-(6-methylpyridin-3-yl)isoxazol-4-yl)methyl)-5-(2-((tetrahydrofuran-3-yl)oxy)pyridin-4-yl)pyridazin-3(2H)-one] | – | – | –
13 nM | 95% | 1.95 | Cc1ccc(-c2noc(C)c2Cn2ncc(N3CCC4(CCOCC4)CC3)cc2=O)cn1 [Example 226, 2-((5-methyl-3-(6-methylpyridin-3-yl)isoxazol-4-yl)methyl)-5-(3-oxa-9-azaspiro[5.5]undecan-9-yl)pyridazin-3(2H)-one] | – | – | –
56.2 nM | 198% | 2.98 | Cc1ccc(-c2noc(C)c2Cn2ncc(N3CC[C@H](C(=O)NC4CC4)C3)cc2=O)cn1 [Example 57, (3S)—N-cyclopropyl-1-[1-[[5-methyl-3-(6-methyl-3-pyridyl)isoxazol-4-yl]methyl]-6-oxo-pyridazin-4-yl]pyrrolidine-3-carboxamide] | – | – | –
14.8 nM | 75% | 1.75 | COc1cc(-c2cnn(Cc3c(-c4cnc(C)c(F)c4)noc3C)c(=O)c2)ccn1 [Example 207, 2-((3-(5-fluoro-6-methylpyridin-3-yl)-5-methylisoxazol-4-yl)methyl)-5-(2-methoxypyridin-4-yl)pyridazin-3(2H)-one] | – | – | –
3.7 nM | 123% | 2.23 | Cc1onc(-c2ccc(C3CC3)nc2)c1Cn1ncc(N2CC3(C2)CC(F)(F)CO3)cc1=O [Example 260, 2-((3-(6-cyclopropylpyridin-3-yl)-5-methylisoxazol-4-yl)methyl)-5-(7,7-difluoro-5-oxa-2-azaspiro[3.4]octan-2-yl)pyridazin-3(2H)-one] | – | – | –
7.8 nM | 136% | 2.36 | Cc1ccc(-c2noc(C)c2Cn2ncc(N3CC(Oc4ccccc4)C3)cc2=O)cn1 [Example 94, 2-[[5-methyl-3-(6-methyl-3-pyridyl)isoxazol-4-yl]methyl]-5-(3-phenoxyazetidin-1-yl)pyridazin-3-one] | – | – | –
– | – | – | Cc1cc(C)n(-c2ccc(OCc3c(-c4ccccc4)noc3C)nn2)n1 [RO-039, reference compound] | 5.15 nM | −17% | 0.83
4.1 nM | 226% | 3.26 | Cc1ccc(-c2noc(C)c2Cn2ncc(N3CC(O)(C(F)(F)F)C3)cc2=O)cn1 [Example 117, 5-(3-hydroxy-3-(trifluoromethyl)azetidin-1-yl)-2-((5-methyl-3-(6-methylpyridin-3-yl)isoxazol-4-yl)methyl)pyridazin-3(2H)-one] | – | – | –
40.9 nM | 324% | 4.24 | Cc1ccc(-c2noc(C)c2Cn2ncc(-c3cccc(C#N)n3)cc2=O)cn1 [Example 211, 6-(1-((5-methyl-3-(6-methyl-3-pyridyl)isoxazol-4-yl)methyl)-6-oxo-pyridazin-4-yl)pyridine-2-carbonitrile] | – | – | –
15.4 nM | 157% | 2.57 | Cc1ccc(-c2noc(C)c2Cn2ncc(N3CCN(C4CC4)[C@H](C)C3)cc2=O)cn1 [Example 59, 5-[(3R)-4-cyclopropyl-3-methyl-piperazin-1-yl]-2-[[5-methyl-3-(6-methyl-3-pyridyl)isoxazol-4-yl]methyl]pyridazin-3-one] | – | – | –
5.6 nM | 111% | 2.11 | Cc1ccc(-c2noc(C)c2Cn2ncc(N3CC4(CC(C)CCO4)C3)cc2=O)nn1 (single isomer, unassigned) [Example 318] | – | – | –
39 nM | 105% | 2.05 | Cc1cc(-c2noc(C)c2Cn2ncc(N3CC4(C3)CN(C3CC3)C4)cc2=O)no1 [Example 87, 5-(2-cyclopropyl-2,6-diazaspiro[3.3]heptan-6-yl)-2-[[5-methyl-3-(5-methylisoxazol-3-yl)isoxazol-4-yl]methyl]pyridazin-3-one] | – | – | –
27.2 nM | 119% | 2.19 | CCOc1ccc(-c2cnn(Cc3c(-c4ccc(C)nc4)noc3C)c(=O)c2)cn1 [Example 151, 5-(6-ethoxypyridin-3-yl)-2-((5-methyl-3-(6-methylpyridin-3-yl)isoxazol-4-yl)methyl)pyridazin-3(2H)-one] | – | – | –
4.9 nM | 68% | 1.68 | Cc1ccc(-c2noc(C)c2Cn2ncc(N3CC4(CC(C)CCO4)C3)cc2=O)nn1 (single isomer, unassigned) [Example 317] | – | – | –
21.7 nM | 101% | 2.01 | CNc1ccc(-c2cnn(Cc3c(-c4ccc(C)nc4)noc3C)c(=O)c2)cn1 [Example 174, 5-(6-(methylamino)-3-pyridyl)-2-((5-methyl-3-(6-methyl-3-pyridyl)isoxazol-4-yl)methyl)pyridazin-3-one] | – | – | –
15.4 nM | 48% | 1.48 | Cc1cc(-c2noc(C)c2Cn2ncc(N3CC4(CCCO4)C3)cc2=O)no1 [Example 142, 2-[[5-methyl-3-(5-methylisoxazol-3-yl)isoxazol-4-yl]methyl]-5-(5-oxa-2-azaspiro[3.4]octan-2-yl)pyridazin-3-one] | – | – | –
1.4 nM | 70% | 1.7 | Cc1onc(-c2ccc(Cl)nn2)c1Cn1ncc(N2CC3(C2)CC(F)(F)CO3)cc1=O [Example 269, 2-((3-(6-chloropyridazin-3-yl)-5-methylisoxazol-4-yl)methyl)-5-(7,7-difluoro-5-oxa-2-azaspiro[3.4]octan-2-yl)pyridazin-3(2H)-one] | – | – | –
8.3 nM | 74% | 1.74 | COc1cc(-c2cnn(Cc3c(-c4ccc(Cl)nc4)noc3C)c(=O)c2)ccn1 [Example 214, 2-((3-(6-chloropyridin-3-yl)-5-methylisoxazol-4-yl)methyl)-5-(2-methoxypyridin-4-yl)pyridazin-3(2H)-one] | – | – | –
18.7 nM | 106% | 2.06 | Cc1onc(-c2ccc(Cl)nc2)c1Cn1ncc(N2CC(OCC(F)F)C2)cc1=O [Example 245, 2-((3-(6-chloropyridin-3-yl)-5-methylisoxazol-4-yl)methyl)-5-(3-(2,2-difluoroethoxy)azetidin-1-yl)pyridazin-3(2H)-one] | – | – | –
